Data on nine compounds can be found in patent US20240391936A1, “TETRAHYDROTHIENO PYRIDINE DERIVATIVES AS DDRS INHIBITORS” (CHIESI FARMACEUTICI S.P.A., priority 2021, published 2024).

The structures appear in SMILES notation.

Assay [1] addresses T1, DDR1 (Homo sapiens, UniProt Q08345). Nature of the assay: DDR1 binding assay (LanthaScreen Europium Kinase Binding assay). To be noted: binding assay, 5 nM DDR1, 20 nM Kinase Tracer 178; Ki from IC50 by Cheng-Prusoff; read-out: Ki DDR1. The arrangement: purchased Carna Biosciences. An outline of the steps:
(§1)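 TR-FRET tracer-displacement format: 665/615 nm emission ratio (340 nm excitation) gave IC50 by 4-parameter fit, then Ki via Cheng-Prusoff. Each kinase at 5 nM with 2 nM Eu-anti-GST antibody and Tracer 178 (DDR1 20 nM, DDR2 10 nM), 1 h, room temperature, HEPES pH 7.5 buffer.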

Assay [2] concerns the target T1, DDR1. Nature of the assay: DDR1 cell based assay (PathHunter U2OS DDR1 assay). More on the design: host or cells: U2OS-DDR1 (PathHunter). Conditions: U2OS-DDR1 cells, bovine Type II Collagen 20 μg/ml. In outline: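 Receptor activation measured by enzyme-fragment complementation luminescence in engineered U2OS cells. Compound added 30 min before overnight challenge with 20 μg/ml bovine collagen II; data scaled between vehicle and collagen-stimulated controls, IC50 derived by four-parameter variable-slope fitting.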

A further assay concerns the target T2, DDR2 (Homo sapiens, UniProt Q16832).
T2 sequence (Q16832 22-855): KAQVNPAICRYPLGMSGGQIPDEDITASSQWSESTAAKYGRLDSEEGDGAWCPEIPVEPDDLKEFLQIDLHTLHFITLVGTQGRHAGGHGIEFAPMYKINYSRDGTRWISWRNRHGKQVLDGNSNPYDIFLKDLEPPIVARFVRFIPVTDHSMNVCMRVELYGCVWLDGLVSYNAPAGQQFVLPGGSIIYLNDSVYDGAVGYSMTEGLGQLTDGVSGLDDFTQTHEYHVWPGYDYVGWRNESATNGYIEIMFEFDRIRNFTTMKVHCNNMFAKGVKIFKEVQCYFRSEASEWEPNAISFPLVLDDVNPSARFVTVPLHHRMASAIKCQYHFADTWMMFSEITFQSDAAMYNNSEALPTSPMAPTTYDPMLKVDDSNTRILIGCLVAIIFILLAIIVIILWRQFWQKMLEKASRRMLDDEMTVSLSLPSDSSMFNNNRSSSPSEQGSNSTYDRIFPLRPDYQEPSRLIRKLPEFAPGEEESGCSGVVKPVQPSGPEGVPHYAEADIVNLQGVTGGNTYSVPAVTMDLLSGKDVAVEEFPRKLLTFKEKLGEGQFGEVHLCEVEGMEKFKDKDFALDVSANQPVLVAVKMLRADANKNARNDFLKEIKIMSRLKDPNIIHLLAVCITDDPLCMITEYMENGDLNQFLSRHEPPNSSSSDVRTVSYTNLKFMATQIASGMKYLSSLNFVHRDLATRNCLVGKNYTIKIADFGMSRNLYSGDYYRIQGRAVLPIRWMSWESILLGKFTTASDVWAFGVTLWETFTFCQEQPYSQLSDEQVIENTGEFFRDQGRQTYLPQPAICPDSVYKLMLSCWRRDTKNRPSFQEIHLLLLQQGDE
As to the kind of experiment: DDR2 binding assay (LanthaScreen Europium Kinase Binding assay). The arrangement: purchased Life Technologies. Conditions: binding assay, 5 nM DDR2, 10 nM Kinase Tracer 178; Ki from IC50 by Cheng-Prusoff; read-out: Ki DDR2. In outline:
as §1

T1 sequence (Q08345 19-913): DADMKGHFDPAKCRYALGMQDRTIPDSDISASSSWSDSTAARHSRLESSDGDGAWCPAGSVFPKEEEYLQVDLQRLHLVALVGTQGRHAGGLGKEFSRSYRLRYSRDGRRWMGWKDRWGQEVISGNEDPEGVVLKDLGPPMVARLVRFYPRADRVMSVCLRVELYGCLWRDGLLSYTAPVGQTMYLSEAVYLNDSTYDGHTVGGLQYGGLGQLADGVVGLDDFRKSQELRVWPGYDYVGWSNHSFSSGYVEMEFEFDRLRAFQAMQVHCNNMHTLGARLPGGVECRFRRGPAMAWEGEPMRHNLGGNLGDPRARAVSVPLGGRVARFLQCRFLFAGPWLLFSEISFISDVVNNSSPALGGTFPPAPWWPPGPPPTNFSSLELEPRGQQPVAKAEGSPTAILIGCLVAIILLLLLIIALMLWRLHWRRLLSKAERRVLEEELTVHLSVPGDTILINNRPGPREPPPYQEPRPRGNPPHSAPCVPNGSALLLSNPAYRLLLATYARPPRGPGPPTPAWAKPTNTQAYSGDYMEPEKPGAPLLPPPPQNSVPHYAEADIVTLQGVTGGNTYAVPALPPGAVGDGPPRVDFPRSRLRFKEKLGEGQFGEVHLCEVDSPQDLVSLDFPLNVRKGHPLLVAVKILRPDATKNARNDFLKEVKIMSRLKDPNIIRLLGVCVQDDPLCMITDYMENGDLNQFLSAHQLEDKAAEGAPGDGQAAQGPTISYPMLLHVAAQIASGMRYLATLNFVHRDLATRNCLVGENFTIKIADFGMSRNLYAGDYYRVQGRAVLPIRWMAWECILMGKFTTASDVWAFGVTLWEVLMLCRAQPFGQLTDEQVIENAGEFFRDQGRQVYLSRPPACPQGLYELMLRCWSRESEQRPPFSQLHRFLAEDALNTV

Regarding `O=C(Nc1cc(CO)cc(C(F)(F)F)c1)c1csc2c1CCN(C(=O)c1cnn3ccncc13)C2` [Example 187, N-(3-(hydroxymethyl)-5-(trifluoromethyl)phenyl)-6-(pyrazolo[1,5-a]pyrazine-3-carbonyl)-4,5,6,7-tetrahydrothieno[2,3-c]pyridine-3-carboxamide], the inhibitory constant (Ki) at DDR1 [1] and on DDR2 was below 25 nM each time. This compound also showed an IC50 on DDR1 [2] below 25 nM.
Turning to `O=C(Nc1ccc(OCCO)c(C(F)(F)F)c1)c1csc2c1CCN(C(=O)c1cnc3ccccn13)C2` [Example 16, N-(4-(2-hydroxyethoxy)-3-(trifluoromethyl)phenyl)-6-(imidazo[1,2-a]pyridine-3-carbonyl)-4,5,6,7-tetrahydrothieno[2,3-c]pyridine-3-carboxamide], the Ki on DDR1 [1] and on DDR2 was below 25 nM throughout. In addition, at DDR1 [2], the IC50 is below 25 nM.
As to `CC(C)(C)c1cncc(NC(=O)c2csc3c2CCN(C(=O)c2cnn4ccncc24)C3)c1` [Example 123, N-(5-(tert-butyl)pyridin-3-yl)-6-(pyrazolo[1,5-a]pyrazine-3-carbonyl)-4,5,6,7-tetrahydrothieno[2,3-c]pyridine-3-carboxamide], the Ki on DDR1 [1] and at DDR2 was below 25 nM each time. On DDR1 [2], this compound gave an IC50 of 50 to 80 nM.
Turning to `CN1CCN(c2cc(NC(=O)c3csc4c3CCN(C(=O)c3cnn5ccncc35)C4)cc(C(F)(F)F)c2)CC1` [Example 178, N-(3-(4-methylpiperazin-1-yl)-5-(trifluoromethyl)phenyl)-6-(pyrazolo[1,5-a]pyrazine-3-carbonyl)-4,5,6,7-tetrahydrothieno[2,3-c]pyridine-3-carboxamide], the Ki at DDR1 [1] and at DDR2 was below 25 nM in each case. Further, the concentration for half-maximal inhibition (IC50) at DDR1 [2] fell in the range of 50 to 80 nM.
In the case of `O=C(Nc1cccc(C(F)(F)F)c1)c1csc2c1CCN(C(=O)c1cnn3cccnc13)C2` [Example 94, 6-(pyrazolo[1,5-a]pyrimidine-3-carbonyl)-N-(3-(trifluoromethyl)phenyl)-4,5,6,7-tetrahydrothieno[2,3-c]pyridine-3-carboxamide], the Ki on DDR1 [1] and on DDR2 was below 25 nM throughout. Besides, at DDR1 [2], the IC50 lay within 50 to 80 nM.
With `Cc1ccc(-n2nc(C(C)(C)C)cc2NC(=O)c2csc3c2CCN(Cc2ccnc4[nH]ccc24)C3)cc1` [Example 76, 6-((1H-pyrrolo[2,3-b]pyridin-4-yl)methyl)-N-(3-(tert-butyl)-1-(p-tolyl)-1H-pyrazol-5-yl)-4,5,6,7-tetrahydrothieno[2,3-c]pyridine-3-carboxamide], the results for the Ki on DDR1 [1] and at DDR2 were below 25 nM and 25 to 50 nM, respectively. At DDR1 [2], the IC50 fell in the range of 50 to 80 nM.
Take `CN1CC=C(c2ccc3ncc(C(=O)N4CCc5c(C(=O)Nc6cccc(C(F)(F)F)c6)csc5C4)n3c2)CC1` [Example 167, 6-(6-(1-methyl-1,2,3,6-tetrahydropyridin-4-yl)imidazo[1,2-a]pyridine-3-carbonyl)-N-(3-(trifluoromethyl)phenyl)-4,5,6,7-tetrahydrothieno[2,3-c]pyridine-3-carboxamide]: the Ki at DDR1 [1] and at DDR2 was below 25 nM throughout. The IC50 against DDR1 [2] fell in the range of 25 to 50 nM.
For the compound `O=C(Nc1cc(CN2CCCCC2)cc(C(F)(F)F)c1)c1csc2c1CCN(C(=O)c1cnc3ccccn13)C2` [Example 60, 6-(imidazo[1,2-a]pyridine-3-carbonyl)-N-(3-(piperidin-1-ylmethyl)-5-(trifluoromethyl)phenyl)-4,5,6,7-tetrahydrothieno[2,3-c]pyridine-3-carboxamide], the Ki on DDR1 [1] and at DDR2 was below 25 nM in each case. For the same compound, the IC50 on DDR1 [2] was in the range of 50 to 80 nM.
For `O=C(Nc1cccc(C(F)(F)F)c1)c1csc2c1CCN(C(=O)c1cnc3cccnn13)C2` [Example 92, 6-(imidazo[1,2-b]pyridazine-3-carbonyl)-N-(3-(trifluoromethyl)phenyl)-4,5,6,7-tetrahydrothieno[2,3-c]pyridine-3-carboxamide], the Ki on DDR1 [1] and at DDR2 was below 25 nM throughout. Besides, the IC50 against DDR1 [2] was below 25 nM.
